Assay results published in paper PMC4657054, “First Structural View of a Peptide Interacting with the Nucleotide Binding Domain of Heat Shock Protein 90” (Scientific Reports, 2015).
Residues, ends and D or L forms follow the SMILES beside them. No end group written: not given here.

Assays:
[1] = target: T1, HspD (Hsp90 of Dictyostelium discoideum) (Dictyostelium discoideum, UniProt P54651); assay: ATPase activity of HspD (pRSET A construct) in presence of peptide; assay type: biochemical; details: for inhibition of ATPase activity of HspD: pre-incubation 0.5 h room temperature, reaction 37 °C 1 h
T1 construct: We had earlier reported the activity studies of the full length protein; hexahistidine tag (N); pRSET A vector linker containing Gly-Arg-Asp-Leu-Tyr-Asp-Asp (N); made in house; host or cells: E. coli Rosetta
Procedure: ATPase assay for HspD was carried out in presence of varying concentrations of the peptide and fixed ATP concentration of 500 μM. In presence of the peptide, there is a significant dose dependent inhibition of ATPase activity of HspD, starting from 5 mM concentration of the peptide (Fig. 5a).
(§1) The genes for HspD and HspD-NTD were cloned into pRSET A vector, using the following primers: 5′ […] 3′ as forward primer and 5′ […] 3′ as reverse primer for HspD as described previously, and 5′ […] 3′ as forward primer and 5′[…] 3′ as reverse primer for HspD-NTD, containing BamHI and XhoI sites (underlined) in forward and reverse primers, respectively. The proteins, HspD and HspD-NTD, were expressed as hexa histidine tagged fusion proteins in E. coli Rosetta strain. The cells were grown in Terrific broth and induced with 1 mM isopropyl β-D-1-thiogalactopyranoside at 15 °C for 15 hours. The proteins were purified by nickel-NTA affinity chromatography. The column was washed with imidazole gradient ranging from 5 mM to 30 mM in 50 mM Tris, pH 7.5, 500 mM NaCl, buffer. The proteins were finally eluted with 300 mM imidazole, followed by gel filtration with Sephacryl S-200 HR column and stored in 25 mM Tris and 200 mM NaCl, pH 7.5 buffer. The clone for human Hsp90 in pRSET A vector was expressed in E. coli Rosetta strain, and the protein was purified to homogeneity by nickel-NTA affinity chromatography, as described previously[31] and dialysed to exchange buffer containing 40 mM Tris-Cl, pH 7.5, 100 mM KCl and 5 mM MgCl2 for the ATPase assay. For the new construct the gene for HspD and HspD-NTD were cloned in pET-28a vector, which lacks the bound peptide sequence. The proteins were expressed and purified using the same protocol as described above.
In order to check the effect of the peptide binding on the ATPase activity of HspD and human Hsp90, purified proteins (2 μM) were incubated with varying peptide concentrations in 40 mM Tris–Cl buffer, pH 7.4, containing 100 mM KCl and 5 mM MgCl2, at room temperature for half hour. ATPase reaction was carried out in the presence of fixed ATP concentration of 500 μM at 37 °C for one hour. γ-^32P-ATP with a specific activity of 0.55 Ci/mmol was used as a tracer. ATP hydrolysis was monitored on a PEI- cellulose TLC plate. Fractional cleavage of ATP was calculated for each peptide concentration. ATPase activity of Hsp90 alone was considered 100%, and percent change in ATPase activity was plotted against peptide concentration.

[2] = target: T2, HspD, new construct (pET-28a) (Dictyostelium discoideum, UniProt P54651); assay: ATPase activity of new construct of HspD (pET-28a, lacking the linker peptide sequence) in presence of peptide; assay type: biochemical; details: 13.5 mM peptide (highest concentration), pET-28a construct, 500 μM ATP, mean ± SEM, n = 2
T2 construct: made in house; host or cells: E. coli Rosetta (same protocol)
Procedure: Bio-Layer Interferometry experiments were carried out to check the binding of the peptide RELWDD. […] The peptide can be further modified to improve the binding efficacy, thereby reducing the inhibitory concentration required to inhibit Hsp90 function.
The genes for HspD and HspD-NTD were cloned into pRSET A vector, using the following primers: 5′ […] 3′ as forward primer and 5′ […] 3′ as reverse primer for HspD as described previously, and 5′ […] 3′ as forward primer and 5′[…] 3′ as reverse primer for HspD-NTD, containing BamHI and XhoI sites (underlined) in forward and reverse primers, respectively. The proteins, HspD and HspD-NTD, were expressed as hexa histidine tagged fusion proteins in E. coli Rosetta strain. The cells were grown in Terrific broth and induced with 1 mM isopropyl β-D-1-thiogalactopyranoside at 15 °C for 15 hours. The proteins were purified by nickel-NTA affinity chromatography. […]
(§2) In order to check the effect of the peptide binding on the ATPase activity of HspD and human Hsp90, purified proteins (2 μM) were incubated with varying peptide concentrations in 40 mM Tris–Cl buffer, pH 7.4, containing 100 mM KCl and 5 mM MgCl2, at room temperature for half hour. […] ATP hydrolysis was monitored on a PEI- cellulose TLC plate. Fractional cleavage of ATP was calculated for each peptide concentration. […]

[3] = target: T3, HspD-NTD (pET-28a construct lacking the linker peptide) (Dictyostelium discoideum, UniProt P54651); assay: biochemical; assay type: binding
T3 construct: the crystal structure of the N-terminal domain of HspD (HspD-NTD); made in house; host or cells: E. coli Rosetta (same protocol)
Procedure: The binding of the peptide RELWDD to HspD-NTD construct lacking the linker peptide was measured by Bio-Layer Interferometry using an Octet RED96 instrument (ForteBio, Inc.). The peptide was immobilized onto Amine Reactive Second-Generation (AR2G) Biosensors. Binding studies were performed by dipping the biosensors in varying concentrations of HspD-NTD. An equal number of unliganded sensors was used as control, to account for non-specific binding. The traces were processed using ForteBio Data Analysis Software, ver. 8.0.3.5, exported and fit globally using Biaevaluation 3.0.1. A simple 1:1 Langmuir interaction model was used for fitting the data.
Figure S1. Binding of HspD-NTD to the peptide RELWDD using Bio-layer Interferometry.
concentrations of the protein.
(1 picture or pasted object on this page, not shown here)

human Hsp90 [4] = target: T4, human Hsp90 (Homo sapiens, UniProt P07900); assay: ATPase activity of human Hsp90 in presence of peptide; assay type: biochemical; parameters: made in house; host or cells: E. coli Rosetta; details: human Hsp90 2 μM, 500 μM ATP
Procedure: Lys47 of HspD-NTD is observed to be in a different rotamer conformation as compared to Lys58 of the human isoform, due to the former’s interaction with the residues of the peptide. Lys58 of the human Hsp90 is likely to adopt a similar conformation in the presence of a similar peptide. The water molecules interacting with Asn40 and Asp82 in the case of HspD-NTD are also found to be conserved in human Hsp90-NTD structure. […] In order to validate this, ATPase assay was performed for human Hsp90 in the presence of the modified peptide. […] This observation that the peptide binds to the NTD and inhibits its ATPase activity paves way for the development of new class of peptide-based inhibitors for Hsp90.
as §1, with “The clone for human Hsp90 in pRSET A vector was expressed in E. coli Rosetta strain, and the protein was purified to homogeneity by nickel-NTA affinity chromatography, as described previously[31] and dialysed to exchange buffer containing 40 mM Tris-Cl, pH 7.5, 100 mM KCl and 5 mM MgCl2 for the ATPase assay. For the new construct the gene for HspD and HspD-NTD were cloned in pET-28a vector, which lacks the bound peptide sequence. The proteins were expressed and purified using the same protocol as described above.” left out
as §2

[5] = target: T5, N-terminal domain of Hsp90 of Dictyostelium discoideum (HspD-NTD), pRSET A construct (Dictyostelium discoideum, UniProt P54651 1-225); assay: crystal structure; hanging drop, 15 mg/mL HspD-NTD, 0.1 M HEPES pH 7.0-8.0, 10-30% PEG3350; no peptide added, the peptide comes from the vector stretch of the fusion protein; 1.2 Å; details: both partners purified
T5 construct: 'a total of 225 residues', the first 214 seen in the density; forward primer starts at the ATG of the gene, reverse primer encodes ...ETTAK-stop; Expressed from pRSET A with a vector stretch (holding GRDLYDD) between the N-terminal hexahistidine tag and the NTD; source: E. coli Rosetta, purified (nickel-NTA, gel filtration on Sephacryl S-200 HR)

[6] = target: Hsp90 of Dictyostelium discoideum (HspD), full length, pRSET A construct (Dictyostelium discoideum) (UniProt P54651)
human Hsp90 [7] = target: T4, human Hsp90
[8] = target: new construct of HspD, full length, in pET-28a (Dictyostelium discoideum) (UniProt P54651)
Chain of new construct of HspD, full length, in pET-28a (Dictyostelium discoideum) (P54651 whole entry): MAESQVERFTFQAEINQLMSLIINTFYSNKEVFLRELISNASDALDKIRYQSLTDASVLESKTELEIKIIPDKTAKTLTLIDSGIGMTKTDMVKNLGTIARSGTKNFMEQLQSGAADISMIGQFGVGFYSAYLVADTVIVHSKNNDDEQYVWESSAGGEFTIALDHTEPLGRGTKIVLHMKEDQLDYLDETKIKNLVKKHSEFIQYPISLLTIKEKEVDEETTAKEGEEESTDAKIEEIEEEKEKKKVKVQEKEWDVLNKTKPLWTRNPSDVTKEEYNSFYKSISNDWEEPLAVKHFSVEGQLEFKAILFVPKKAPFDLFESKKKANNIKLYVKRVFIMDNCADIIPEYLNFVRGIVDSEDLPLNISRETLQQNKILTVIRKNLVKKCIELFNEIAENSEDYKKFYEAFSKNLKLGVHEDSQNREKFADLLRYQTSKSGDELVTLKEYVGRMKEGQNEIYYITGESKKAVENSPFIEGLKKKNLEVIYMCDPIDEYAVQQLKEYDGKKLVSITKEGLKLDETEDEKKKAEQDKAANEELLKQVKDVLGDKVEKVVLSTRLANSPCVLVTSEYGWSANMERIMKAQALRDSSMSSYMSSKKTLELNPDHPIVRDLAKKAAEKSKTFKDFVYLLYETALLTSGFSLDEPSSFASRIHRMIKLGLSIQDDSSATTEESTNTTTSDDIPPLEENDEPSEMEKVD

T3 sequence (P54651 1-225 limits assumed): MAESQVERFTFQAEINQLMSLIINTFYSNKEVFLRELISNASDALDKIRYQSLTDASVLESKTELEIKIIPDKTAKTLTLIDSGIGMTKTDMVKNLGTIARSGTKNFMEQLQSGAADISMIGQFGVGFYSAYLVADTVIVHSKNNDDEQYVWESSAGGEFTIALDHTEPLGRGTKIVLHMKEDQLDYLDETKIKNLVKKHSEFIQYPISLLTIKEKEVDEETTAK
T1 sequence (P54651 whole entry): as the sequence (P54651 whole entry) above
T5 sequence (P54651 1-225): as the sequence (P54651 1-225 limits assumed) above
T2 sequence (P54651 whole entry): as the sequence (P54651 whole entry) above
Chain of Hsp90 of Dictyostelium discoideum (HspD), full length, pRSET A construct (Dictyostelium discoideum) (P54651 whole entry): as above

## GRDLYDD [GRDLYDD, purchased synthetic peptide]
[1]; 100 μM-13.5 mM peptide, HspD 2 μM, 500 μM ATP, 37 °C, 1 h, γ-32P-ATP, TLC
  change in ATPase activity of HspD in the presence of the peptide: no significant change
[1]; summary statement
  ATPase inhibition of HspD, in words: no inhibition whatsoever

## CC(C)C[C@H](NC(=O)[C@H](CCC(=O)O)NC(=O)[C@@H](N)CCCNC(=N)N)C(=O)N[C@@H](Cc1c[nH]c2ccccc12)C(=O)N[C@@H](CC(=O)O)C(=O)N[C@@H](CC(=O)O)C(=O)O [RELWDD, Arg-Glu-Leu-Trp-Asp-Asp] (H-RELWDD-OH)
[1]; 10 mM peptide, HspD 2 μM, 500 μM ATP
  inhibition of ATPase activity of HspD: 30%
[1]; 13.5 mM peptide (highest concentration), HspD 2 μM, 500 μM ATP, mean ± SEM, n = 5, SEM
  ATPase activity of HspD observed (Hsp90 alone = 100%): 38.50 ± 10.11%
[1]; 13.5 mM peptide, HspD 2 μM, 500 μM ATP
  inhibition of ATPase activity of HspD: 60%
[2]
  ATPase activity of new construct of HspD observed (Hsp90 alone = 100%): 50.60 ± 4.68%
[3]
  KD of binding to HspD-NTD, in words: lower micromolar range
[3]; Bio-Layer Interferometry, peptide immobilized on AR2G biosensors, 1:1 Langmuir model, global fit, mean ± standard deviation, SD
  kon: 90.6 ± 46.6 M⁻¹ s⁻¹
[3]; SD
  Kd: 28.2 ± 14.6 µM
Human Hsp90 [4]; 5 mM peptide
  inhibition of ATPase activity of human Hsp90: 30%
Human Hsp90 [4]; 10 mM peptide
  inhibition of ATPase activity of human Hsp90: 55%
Human Hsp90 [4]; 10 mM peptide, mean ± SEM, n = 2, SEM
  ATPase activity of human Hsp90 remaining (Hsp90 alone = 100%): 46.91 ± 12.05%

B1: heptapeptide Gly-Arg-Asp-Leu-Tyr-Asp-Asp (peptide)
peptide: GRDLYDD
notes: numbered from -14 to -8 starting from Gly; No peptide was added for the crystal; also called GRDLYDD; the peptide; source: for the ATPase assay: synthetic peptide, bought: Custom peptide synthesis, USV Limited, Mumbai
[5]
  binding result: binds

## RELWDD (not fully specified) [modified hexapeptide Arg-Glu-Leu-Trp-Asp-Asp]
[6]
  percent inhibition of ATPase activity of HspD (2 μM, 500 μM ATP) with rising peptide RELWDD, inhibition from 5 mM, 30% at 10 mM, highest at 13.5 mM: 60%
Human Hsp90 [7]
  percent inhibition of ATPase activity of human Hsp90 (2 μM) with rising peptide RELWDD, 30% at 5 mM, highest at 10 mM: 55%
[8]
  percent ATPase activity left of the new construct of HspD (pET-28a) with rising peptide RELWDD, at the highest concentration of 13.5 mM: 50.6%
